Consider 7 compounds from patent US20110269680A1 (PANACEA BIOTEC LIMITED, priority 2008, published 2011).

For one data set, the target named is T1, NEP 24.11 (Homo sapiens, UniProt P08473).
T1 construct: purchased Calbiochem
Briefly: NEP 24.11 resistant (degradation) assay. Format: in vitro ADME. The note with it: for half-life at 20 μM: buffer. On the procedure:
The aliquots were analyzed for the amount of undegraded peptide concentration at different time intervals using RP-HPLC by peak area integration. T1/2 of each peptide was determined from the graph plotted between peak area of undegraded peptide vs time.

For a further data set, the target named is T2, DPP-IV (Homo sapiens, UniProt P27487).
T2 construct: purchased Sigma-Aldrich
Briefly: DPP-IV resistant assay. Format: in vitro ADME. As for the experimental part:
20 μM of peptides of the present invention (Sequence IDs—01, 02, 03, 04, 05, 06, 11, 12 and 13) were incubated with 60 mU/2 ml of DPP-IV (Sigma-Aldrich) enzyme at room temperature (22-24° C.) in 20 mM Tris HCl buffer, pH 8.0. The aliquots were analyzed for the amount of undegraded peptide concentration at different time intervals by RP-HPLC. The peak area integration was used to determine the amount of undegraded peptide (U.S. Pat. No. 7,067,488). T1/2 of each peptide was determined from the graph plotted between peak area of undegraded peptide vs. time. The peak area of DPP-IV untreated peptide in above mentioned buffer condition of same concentration was considered as time zero. […]

The target of a further data set is T3, GLP-1R (Homo sapiens, UniProt P43220).
T3 construct: expressed in transfected cells; host or cells: CHO/GLP-1R cells
Briefly: In vitro receptor functional assay (cAMP) in CHO/GLP-1R cells. Format: cell-based. The note with it: intracellular cAMP, 30 min with 1 mM IBMX. The text has this:
cAMP is a ubiquitous cellular second messenger that is critical component of a signal transduction pathway linking membrane receptors and their ligands to the activation of internal cellular enzymatic activity and gene expression. cAMP is synthesized from ATP by membrane bound adenylate cyclase in a very regulated manner. In its simpler form, binding of a ligand, such as hormone or drug, to its specific G protein coupled receptor can either stimulate or inhibit adenylate cyclase depending on the GPCR being activated. […] Therefore the relative concentration of cAMP serves as a means to monitor the activity of GPCRs at the cell surface.
CHO/GLP-1R Cell Culture—CHO/GLP-1R Cells were maintained in Ham's F-12 medium containing 10% Fetal bovine serum and 1% penicillin-streptomycin antibiotic solution at 37° C. in a 5% CO2 incubator.
Cells were washed twice with PBS (pH-7.2) and incubated with 100 μl Ham's F-12 serum free medium supplemented with 0.1% BSA for 2 hr at 37° C. in 5% CO2 incubator. Cells were then incubated in 100 μl Ham's F-12 serum free medium supplemented with 0.1% BSA with 1 mM IBMX in the presence as well as absence of the peptides as per present invention in different concentration (10 nM, 1 nM, 100 pM & 10 pM). The reaction was stopped 30 min later by washing the intact cells three times with ice cold PBS (pH-7.2). The intracellular cAMP was extracted by incubating the cells in 100 μl 0.1N HCl at room temperature for 20 minutes. Mixture was dissociated by pipetting up and down until the suspension became homogenous, transferred to centrifuge tube and centrifuged at 800 rpm for 10 minutes.
Dissolved 5 pNPP tablets in 25 ml DEA buffer. Wells were emptied and washed five times with wash buffer and added 200 μl pNPP solution to each well, plate was covered and allowed to develop in dark for 90 minutes.

Like-named read-outs stand apart in the source and are kept apart here. Numbered stars: 1 amine (or outer) side, 2 acyl side, 3 side chain; on linkers, the order of the positions; unused ones are H or OH. Square brackets hold non-standard residues; d marks the D form. Peptide text beside a SMILES is read from it. X1 = CO[C@H]1O[C@H](C(=O)[*:2])[C@@H](O)[C@H](O)[C@H]1N[*:1]; 2Furoyl(5-aminomethyl) = O=C(c1ccc(CN[*:1])o1)[*:2]; Aib = CC(C)(N)C(=O)O

As usually defined, the EC50 is the midpoint of the concentration-response curve. Read a high EC50 as a need for much substance.

T3 sequence (P43220 24-463, species assumed): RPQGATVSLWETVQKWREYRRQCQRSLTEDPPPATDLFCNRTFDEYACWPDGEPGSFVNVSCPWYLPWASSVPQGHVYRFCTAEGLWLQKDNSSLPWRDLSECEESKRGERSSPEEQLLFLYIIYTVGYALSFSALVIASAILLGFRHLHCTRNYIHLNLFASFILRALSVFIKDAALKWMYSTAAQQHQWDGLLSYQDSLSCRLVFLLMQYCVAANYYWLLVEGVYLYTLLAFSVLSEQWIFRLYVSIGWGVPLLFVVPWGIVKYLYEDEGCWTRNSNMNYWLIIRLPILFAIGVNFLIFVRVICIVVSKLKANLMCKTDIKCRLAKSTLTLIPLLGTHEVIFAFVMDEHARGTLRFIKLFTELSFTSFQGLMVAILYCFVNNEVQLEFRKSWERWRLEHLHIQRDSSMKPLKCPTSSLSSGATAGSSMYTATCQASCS
T2 sequence (P27487 whole entry, species assumed): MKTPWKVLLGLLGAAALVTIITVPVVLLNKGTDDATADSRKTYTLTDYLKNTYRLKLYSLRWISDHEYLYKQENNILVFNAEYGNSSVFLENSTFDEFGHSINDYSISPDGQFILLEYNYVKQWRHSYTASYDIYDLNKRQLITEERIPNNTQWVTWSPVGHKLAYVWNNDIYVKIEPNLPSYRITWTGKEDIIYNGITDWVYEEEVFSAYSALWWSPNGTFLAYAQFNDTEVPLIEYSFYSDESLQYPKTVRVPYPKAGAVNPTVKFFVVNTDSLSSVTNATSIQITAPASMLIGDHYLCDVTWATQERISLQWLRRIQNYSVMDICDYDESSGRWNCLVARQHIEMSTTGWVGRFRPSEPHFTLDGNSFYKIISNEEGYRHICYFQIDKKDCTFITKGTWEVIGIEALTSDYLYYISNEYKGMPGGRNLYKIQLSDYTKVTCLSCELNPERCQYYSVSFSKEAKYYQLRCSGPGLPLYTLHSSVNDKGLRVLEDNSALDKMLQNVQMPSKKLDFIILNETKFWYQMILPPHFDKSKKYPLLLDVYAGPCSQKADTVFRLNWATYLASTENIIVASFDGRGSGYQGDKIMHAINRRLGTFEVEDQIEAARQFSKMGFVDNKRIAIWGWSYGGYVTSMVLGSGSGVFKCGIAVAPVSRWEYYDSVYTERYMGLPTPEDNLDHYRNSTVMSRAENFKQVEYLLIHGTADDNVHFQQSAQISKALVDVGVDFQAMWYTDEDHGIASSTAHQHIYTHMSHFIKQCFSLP
T1 sequence (P08473 whole entry): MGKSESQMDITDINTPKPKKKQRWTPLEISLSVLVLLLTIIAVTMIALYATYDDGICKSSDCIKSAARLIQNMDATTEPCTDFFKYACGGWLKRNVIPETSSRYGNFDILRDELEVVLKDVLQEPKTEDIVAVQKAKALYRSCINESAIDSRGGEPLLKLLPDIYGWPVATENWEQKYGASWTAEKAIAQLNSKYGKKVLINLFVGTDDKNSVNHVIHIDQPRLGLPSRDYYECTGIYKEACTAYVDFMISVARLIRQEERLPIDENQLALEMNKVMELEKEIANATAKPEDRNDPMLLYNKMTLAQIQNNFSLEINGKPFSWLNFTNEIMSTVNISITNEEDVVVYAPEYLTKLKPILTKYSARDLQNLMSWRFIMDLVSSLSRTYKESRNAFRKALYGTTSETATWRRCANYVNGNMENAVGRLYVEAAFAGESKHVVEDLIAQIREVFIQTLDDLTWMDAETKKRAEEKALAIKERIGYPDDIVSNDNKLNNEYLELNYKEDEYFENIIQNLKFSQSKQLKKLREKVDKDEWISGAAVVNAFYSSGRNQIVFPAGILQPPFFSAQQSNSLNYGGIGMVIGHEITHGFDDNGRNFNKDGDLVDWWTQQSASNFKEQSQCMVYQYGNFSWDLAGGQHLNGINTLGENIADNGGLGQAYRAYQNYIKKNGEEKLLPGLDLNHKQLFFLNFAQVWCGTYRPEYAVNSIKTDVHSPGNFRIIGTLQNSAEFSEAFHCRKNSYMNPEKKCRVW

For the compound `CC[C@H](C)[C@H](NC(=O)[C@H](Cc1ccccc1)NC(=O)[C@H](CCC(=O)O)NC(=O)[C@H](CCCCN)NC(=O)[C@H](C)NC(=O)[C@H](C)NC(=O)[C@H](CCC(N)=O)NC(=O)CNC(=O)[C@H](CCC(=O)O)NC(=O)[C@H](CC(C)C)NC(=O)[C@H](Cc1ccc(O)cc1)NC(=O)[C@H](CO)NC(=O)[C@H](CO)NC(=O)[C@@H](NC(=O)[C@H](CC(=O)O)NC(=O)[C@H](CO)NC(=O)[C@@H](NC(=O)[C@H](Cc1ccccc1)NC(=O)[C@@H](NC(=O)CNC(=O)[C@H](CCC(=O)O)NC(=O)[C@H](C)NC(=O)[C@@H](N)Cc1c[nH]cn1)[C@@H](C)O)[C@@H](C)O)C(C)C)C(=O)N[C@@H](C)C(=O)N[C@@H](Cc1c[nH]c2ccccc12)C(=O)N[C@@H](CC(C)C)C(=O)N[C@H](C(=O)N[C@@H](CCCCN)C(=O)NCC(=O)N[C@@H](CCCNC(=N)N)C(N)=O)C(C)C` [GLP-1(7-36) parent, GLP-1(7-36), reference compound], the metabolised at 54 h, 20 μM on NEP 24.11 (isolated enzyme neprilysin, pH 7.4, NEP 24.11, after 54 hrs, read-out: % Degradation (after 54 hrs)) worked out at 98.3%.

Take `CC[C@H](C)[C@H](NC(=O)[C@H](Cc1ccccc1)NC(=O)[C@H](CCC(=O)O)NC(=O)[C@H](CCCCN)NC(=O)[C@H](C)NC(=O)[C@H](C)NC(=O)[C@H](CCC(N)=O)NC(=O)CNC(=O)[C@H](CCC(=O)O)NC(=O)[C@H](CC(C)C)NC(=O)[C@H](Cc1ccc(O)cc1)NC(=O)[C@H](CO)NC(=O)[C@H](CO)NC(=O)C(C)(C)NC(=O)[C@H](CC(=O)O)NC(=O)[C@H](CO)NC(=O)[C@@H](NC(=O)[C@H](Cc1ccccc1)NC(=O)[C@@H](NC(=O)CNC(=O)[C@H](CCC(=O)O)NC(=O)c1ccc(CNC(=O)[C@@H](N)Cc2c[nH]cn2)o1)[C@@H](C)O)[C@@H](C)O)C(=O)NC(C)(C)C(=O)N[C@@H](Cc1c[nH]c2ccccc12)C(=O)N[C@@H](CC(C)C)C(=O)N[C@H](C(=O)N[C@@H](CCCCN)C(=O)NCC(=O)N[C@@H](CCCNC(=N)N)C(N)=O)C(C)C` [Seq ID No. 04] (H-H[2Furoyl(5-aminomethyl)]EGTFTSD[Aib]SSYLEGQAAKEFI[Aib]WLVKGR-NH2; N-terminus assumed): the half-life at 20 μM at NEP 24.11 (pH 7.4) is above 56 h; at DPP-IV (pH 8) it was above 24 h. For the same compound, the metabolised at 54 h, 20 μM on NEP 24.11 (isolated enzyme neprilysin, pH 7.4) amounted to 26%. On DPP-IV, the “Percentage degradation in hrs” value is reported as 12.87%.

On GLP-1R, `CC[C@H](C)[C@H](NC(=O)[C@H](Cc1ccccc1)NC(=O)[C@H](CCC(=O)O)NC(=O)[C@H](CCCCN)NC(=O)[C@H](C)NC(=O)[C@H](C)NC(=O)[C@H](CCC(N)=O)NC(=O)CNC(=O)[C@H](CCC(=O)O)NC(=O)[C@H](CC(C)C)NC(=O)[C@H](Cc1ccc(O)cc1)NC(=O)[C@H](CO)NC(=O)[C@H](CO)NC(=O)[C@@H](NC(=O)[C@H](CC(=O)O)NC(=O)[C@H](CO)NC(=O)[C@@H](NC(=O)[C@H](Cc1ccccc1)NC(=O)[C@@H](NC(=O)CNC(=O)[C@H]1O[C@H](OC)[C@H](NC(=O)[C@@H](N)Cc2c[nH]cn2)[C@@H](O)[C@@H]1O)[C@@H](C)O)[C@@H](C)O)C(C)C)C(=O)N[C@@H](C)C(=O)N[C@@H](Cc1c[nH]c2ccccc12)C(=O)N[C@@H](CC(C)C)C(=O)N[C@H](C(=O)N[C@@H](CCCCN)C(=O)NCC(=O)N[C@@H](CCCNC(=N)N)C(N)=O)C(C)C` [Seq ID No. 07] yielded an EC50 of 0.056 nM.

With `CC[C@H](C)[C@H](NC(=O)[C@H](Cc1ccccc1)NC(=O)[C@H](CCC(=O)O)NC(=O)[C@H](CCCCN)NC(=O)[C@H](C)NC(=O)[C@H](C)NC(=O)[C@H](CCC(N)=O)NC(=O)CNC(=O)[C@H](CCC(=O)O)NC(=O)[C@H](CC(C)C)NC(=O)[C@H](Cc1ccc(O)cc1)NC(=O)[C@H](CO)NC(=O)[C@H](CO)NC(=O)[C@@H](NC(=O)[C@H](CC(=O)O)NC(=O)[C@H](CO)NC(=O)[C@@H](NC(=O)[C@H](Cc1ccccc1)NC(=O)[C@@H](NC(=O)CNC(=O)c1ccc(CNC(=O)[C@@H](N)Cc2c[nH]cn2)o1)[C@@H](C)O)[C@@H](C)O)C(C)C)C(=O)N[C@@H](C)C(=O)N[C@@H](Cc1c[nH]c2ccccc12)C(=O)N[C@@H](CC(C)C)C(=O)N[C@H](C(=O)N[C@@H](CCCCN)C(=O)NCC(=O)N[C@@H](CCCNC(=N)N)C(N)=O)C(C)C` [Seq ID No. 08], the midpoint of the response on GLP-1R, the EC50, lay at 0.601 nM.

Compound `CC[C@H](C)[C@H](NC(=O)[C@H](Cc1ccccc1)NC(=O)[C@H](CCC(=O)O)NC(=O)[C@H](CCCCN)NC(=O)[C@H](C)NC(=O)[C@H](C)NC(=O)[C@H](CCC(N)=O)NC(=O)CNC(=O)[C@H](CCC(=O)O)NC(=O)[C@H](CC(C)C)NC(=O)[C@H](Cc1ccc(O)cc1)NC(=O)[C@H](CO)NC(=O)[C@H](CO)NC(=O)C(C)(C)NC(=O)[C@H](CC(=O)O)NC(=O)[C@H](CO)NC(=O)[C@@H](NC(=O)[C@H](Cc1ccccc1)NC(=O)[C@@H](NC(=O)CNC(=O)[C@H](CCC(=O)O)NC(=O)c1ccc(CNC(=O)[C@@H](N)Cc2c[nH]cn2)o1)[C@@H](C)O)[C@@H](C)O)C(=O)NC(C)(C)C(=O)N[C@@H](Cc1c[nH]c2ccccc12)C(=O)N[C@@H](CC(C)C)C(=O)N[C@H](C(=O)N[C@@H](CCCCN)C(=O)NCC(=O)N[C@@H](CCCNC(=N)N)C(=O)NCC(N)=O)C(C)C` [Seq ID No. 09] (H-H[2Furoyl(5-aminomethyl)]EGTFTSD[Aib]SSYLEGQAAKEFI[Aib]WLVKGRG-NH2) had an EC50 at GLP-1R of 1 nM.

For `CC[C@H](C)[C@H](NC(=O)[C@H](Cc1ccccc1)NC(=O)[C@H](CCC(=O)O)NC(=O)[C@H](CCCCN)NC(=O)[C@H](C)NC(=O)[C@H](C)NC(=O)[C@H](CCC(N)=O)NC(=O)CNC(=O)[C@H](CCC(=O)O)NC(=O)[C@H](CC(C)C)NC(=O)[C@H](Cc1ccc(O)cc1)NC(=O)[C@H](CO)NC(=O)[C@H](CO)NC(=O)[C@@H](NC(=O)[C@H](CC(=O)O)NC(=O)[C@H](CO)NC(=O)[C@@H](NC(=O)[C@H](Cc1ccccc1)NC(=O)[C@@H](NC(=O)CNC(=O)[C@H](CCC(=O)O)NC(=O)c1ccc(CNC(=O)[C@@H](N)Cc2c[nH]cn2)o1)[C@@H](C)O)[C@@H](C)O)C(C)C)C(=O)N[C@@H](C)C(=O)N[C@@H](Cc1c[nH]c2ccccc12)C(=O)N[C@@H](CC(C)C)C(=O)N[C@H](C(=O)N[C@@H](CCCCN)C(=O)NC(C)(C)C(=O)N[C@@H](CCCNC(=N)N)C(N)=O)C(C)C` [Seq ID No. 11], the half-life at 20 μM on DPP-IV (20 μM peptide, 60 mU/2 ml DPP-IV, room temperature (22-24° C.), 20 mM Tris HCl pH 8.0, RP-HPLC, read-out: T1/2 in Hrs) is above 24 h. Moreover, the “Percentage degradation in hrs” value on DPP-IV (DPP-IV, in 24 hrs) stood at 20%. In addition, the “half life against DPP-IV compared with parent GLP-1 molecules” value on DPP-IV (versus GLP-1(7-37) parent and GLP-1(7-36) parent) is “better half lives than the parent GLP-1 molecules”.

As to `CC[C@H](C)[C@H](NC(=O)[C@H](Cc1ccccc1)NC(=O)[C@H](CC(C)C)NC(=O)[C@H](CCCCN)NC(=O)[C@H](C)NC(=O)[C@H](C)NC(=O)[C@H](CCC(N)=O)NC(=O)CNC(=O)[C@H](CCC(=O)O)NC(=O)[C@H](CCC(N)=O)NC(=O)[C@H](Cc1ccc(O)cc1)NC(=O)[C@H](CO)NC(=O)[C@H](CC(C)C)NC(=O)[C@@H](NC(=O)[C@H](CC(=O)O)NC(=O)[C@H](CO)NC(=O)[C@@H](NC(=O)[C@H](Cc1ccccc1)NC(=O)[C@@H](NC(=O)CNC(=O)[C@H]1O[C@H](OC)[C@H](NC(=O)[C@@H](N)Cc2c[nH]cn2)[C@@H](O)[C@@H]1O)[C@@H](C)O)[C@@H](C)O)C(C)C)C(=O)N[C@@H](CCC(=O)O)C(=O)N[C@@H](Cc1c[nH]c2ccccc12)C(=O)N[C@@H](CC(C)C)C(=O)N[C@H](C(=O)N[C@@H](CCCCN)C(=O)NCC(=O)N[C@@H](CCCNC(=N)N)C(N)=O)C(C)C` [Seq ID No. 12] (H-H[X1]GTFTSDVLSYQEGQAAKLFIEWLVKGR-NH2; N-terminus assumed), the half-life at 20 μM was 27.5 h at NEP 24.11 (20 μM peptide, 1 mg/ml NEP 24.11, 37° C., 50 mM Hepes, 50 mM NaCl, pH 7.4, RP-HPLC, read-out: T1/2 (converted)) and above 24 h on DPP-IV (pH 8). Also, at NEP 24.11 (isolated NEP 24.11 enzyme (Calbiochem), pH 7.4, NEP 24.11, after 54 hrs, read-out: % Degradation (after 54 hrs)), the metabolised at 54 h, 20 μM is 93.5%. Also, the “Percentage degradation in hrs” value on DPP-IV is 24.93%.
